The structures appear in SMILES notation. Active and inactive are the calls of the source. No cut-off for these calls is given here.

Data set [1] relates to KBV. Kind of data set: Reversal of Pgp-mediated paclitaxel resistance in human KBV cells assessed as cell viability at 10 uM in presence of paclitaxel incubated for 72 hrs by MTT assay. To be noted: filed as modulator. The data set is classed as cell-based. (In general: Tetrazolium dyes change colour on reduction, which living cells bring about.)
The test system of data set [2] is KBV. Briefly: Reversal of Pgp-mediated multidrug resistance in human KBV cells assessed as fold change in vincristine IC50 at 5 uM after 72 hrs in presence of vincristine by MTT assay relative to control. The data set is classed as cell-based.
The target of data set [3] is T1, Broad substrate specificity ATP-binding cassette transporter ABCG2 (Homo sapiens, UniProt Q9UNQ0).
T1 sequence (Q9UNQ0 whole entry): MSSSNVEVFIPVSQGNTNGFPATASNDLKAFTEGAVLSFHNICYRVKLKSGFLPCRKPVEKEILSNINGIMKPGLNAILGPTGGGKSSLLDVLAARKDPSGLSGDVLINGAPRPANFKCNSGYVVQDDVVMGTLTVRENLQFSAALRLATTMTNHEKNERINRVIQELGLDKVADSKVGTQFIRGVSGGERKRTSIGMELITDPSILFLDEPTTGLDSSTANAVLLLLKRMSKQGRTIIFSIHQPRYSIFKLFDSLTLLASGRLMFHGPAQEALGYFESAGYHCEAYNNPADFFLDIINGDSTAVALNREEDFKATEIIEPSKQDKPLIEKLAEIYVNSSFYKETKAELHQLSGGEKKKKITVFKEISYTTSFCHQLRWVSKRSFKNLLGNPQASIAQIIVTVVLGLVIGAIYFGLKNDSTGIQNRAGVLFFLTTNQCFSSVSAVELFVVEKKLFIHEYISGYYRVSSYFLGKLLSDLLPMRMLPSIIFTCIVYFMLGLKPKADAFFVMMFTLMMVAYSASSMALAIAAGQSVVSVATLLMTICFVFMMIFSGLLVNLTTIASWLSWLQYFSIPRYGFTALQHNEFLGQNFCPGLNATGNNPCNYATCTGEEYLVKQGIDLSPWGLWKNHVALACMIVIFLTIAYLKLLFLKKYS
Briefly: Reversal of BCRP-mediated multidrug resistance in human KBV cells assessed as fold change in mitoxantrone IC50 at 5 uM after 72 hrs in presence of mitoxantrone by MTT assay. Type of data set: cell-based.

Data set [4] deals with T1, Broad substrate specificity ATP-binding cassette transporter ABCG2. Kind of data set: Reversal of BCRP-mediated multidrug resistance in human KBV cells assessed as fold change in mitoxantrone IC50 at 10 uM after 72 hrs in presence of mitoxantrone by MTT assay. Type of data set: cell-based.
Data set [5] can be described thus: Cytotoxicity against human KBV cells assessed as cell viability at 10 uM incubated for 72 hrs by MTT assay. The data set is classed as cell-based. As to conditions: read-out: Activity.
The subject of data set [6] is KBV. Kind of data set: Reversal of Pgp-mediated multidrug resistance in human KBV cells assessed as fold change in paclitaxel IC50 at 5 uM after 72 hrs in presence of paclitaxel by MTT assay relative to control. The data set is classed as cell-based.
The subject of data set [7] is KBV. Briefly: Reversal of Pgp-mediated multidrug resistance in human KBV cells assessed as fold change in paclitaxel IC50 at 10 uM after 72 hrs in presence of paclitaxel by MTT assay relative to control. The data set is classed as cell-based.
Data set [8] deals with KBV. Briefly: Reversal of Pgp-mediated multidrug resistance in human KBV cells assessed as fold change in vincristine IC50 at 10 uM after 72 hrs in presence of vincristine by MTT assay relative to control. Type of data set: cell-based.
Data set [9] concerns KBV. Kind of data set: Reversal of Pgp-mediated paclitaxel resistance in human KBV cells assessed as cell viability at 5 uM in presence of paclitaxel incubated for 72 hrs by MTT assay. Type of data set: cell-based.
Data set [10] is described as follows: Induction of cell cycle arrest in human KBV cells assessed as accumulation at G2/M phase at 10 uM after 24 hrs by PI/RNaseA staining based flow cytometric analysis (reference value: 33.81 +/- 0.57%). Type of data set: functional. In general terms: In flow cytometry, cells or beads pass a laser one at a time.
The nature of data set [11]: Induction of cell cycle arrest in human KBV cells assessed as accumulation at G1/G0 phase at 10 uM after 24 hrs in presence of 0.1 uM paclitaxel by PI/RNaseA staining based flow cytometric analysis (reference value: 50.74 +/- 0.07%). Type of data set: functional.
The species named for another data set is Homo sapiens. Kind of data set: Modulation of Pgp-ATPase activity (unknown origin) assessed as fold increase in ATP consumption at 0.5 mM preincubated for 5 mins followed by Mg-ATP addition and measured after 45 mins by microplate reader analysis. As to conditions: filed as modulator, time 50.0 min.
Data set [12] can be described thus: Induction of cell cycle arrest in human KBV cells assessed as accumulation at G2/M phase at 10 uM after 24 hrs in presence of 0.1 uM paclitaxel by PI/RNaseA staining based flow cytometric analysis (reference value: 28.03 +/- 0.95%). Type of data set: functional.
A short description of data set [13]: Induction of cell cycle arrest in human KBV cells assessed as accumulation at G1/G0 phase at 10 uM after 24 hrs by PI/RNaseA staining based flow cytometric analysis (reference value: 49.09 +/- 0.35%). Type of data set: functional.
Data set [14] can be described thus: Induction of cell cycle arrest in human KBV cells assessed as accumulation at sub-G1 phase at 10 uM after 24 hrs by PI/RNaseA staining based flow cytometric analysis (reference value: 4.26 +/- 0.35%). The data set is classed as functional.
Data set [15] in a line: Induction of cell cycle arrest in human KBV cells assessed as accumulation at S phase at 10 uM after 24 hrs by PI/RNaseA staining based flow cytometric analysis (reference value: 11.32 +/- 0.04%). Type of data set: functional.
Data set [16] in a line: Induction of cell cycle arrest in human KBV cells assessed as accumulation at sub-G1 phase at 10 uM after 24 hrs in presence of 0.1 uM paclitaxel by PI/RNaseA staining based flow cytometric analysis (reference value: 5.83 +/- 0.31%). Type of data set: functional.
Data set [17] in a line: Induction of cell cycle arrest in human KBV cells assessed as accumulation at S phase at 10 uM after 24 hrs in presence of 0.1 uM paclitaxel by PI/RNaseA staining based flow cytometric analysis (reference value: 13.06 +/- 0.39%). Type of data set: functional.
The nature of data set [18]: Antitumor activity against human KBV cells xenografted model assessed as reduction in tumor weight at 10 mg/kg in presence of 30 mg/kg paclitaxel. The data set is classed as functional. For orientation: Xenograft models place foreign cells or tissue in a host animal.
Data set [19] can be described thus: Induction of cell cycle arrest in human KBV cells assessed as accumulation at G1/G0 phase at 5 uM after 24 hrs in presence of 0.1 uM paclitaxel by PI/RNaseA staining based flow cytometric analysis (reference value: 50.74 +/- 0.07%). Type of data set: functional.
Data set [20] deals with KBV. Briefly: Reversal of P-gp mediated drug efflux in human KBV cells assessed as increase in intracellular Rhodamine123 accumulation preincubated for 2 hrs followed by Rh123 addition measured after 0.5 hr by flow cytometry analysis. Type of data set: cell-based. As to conditions: filed as modulator, dose 2-10 µM, time 2.5 hrs.
The nature of data set [21]: Induction of cell cycle arrest in human KBV cells assessed as accumulation at S phase at 5 uM after 24 hrs in presence of 0.1 uM paclitaxel by PI/RNaseA staining based flow cytometric analysis (reference value: 13.06 +/- 0.39%). The data set is classed as functional.
The nature of data set [22]: Induction of cell cycle arrest in human KBV cells assessed as accumulation at G2/M phase at 5 uM after 24 hrs in presence of 0.1 uM paclitaxel by PI/RNaseA staining based flow cytometric analysis (reference value: 28.03 +/- 0.95%). Type of data set: functional.
Data set [23] can be described thus: Induction of cell cycle arrest in human KBV cells assessed as accumulation at sub-G1 phase at 5 uM after 24 hrs in presence of 0.1 uM paclitaxel by PI/RNaseA staining based flow cytometric analysis (reference value: 5.83 +/- 0.31%). The data set is classed as functional.
Data set [24] concerns KBV. Kind of data set: Effect on Pgp protein expression in human KBV cells at 5 to 10 uM after 24 hrs by Western blot analysis. The data set is classed as functional, cell-based. To be noted: dose 5-10 µM.

As for `CSCC[C@H](NC(=O)OC(C)(C)C)C(=O)O[C@H]1CC[C@]2(C)[C@H]3C[C@@H](O)[C@@H]4[C@@H]([C@]5(C)CC[C@@H](C(C)(C)O)O5)CC[C@@]4(C)[C@]3(C)CC[C@H]2C1(C)C`, the Activity in the data set with KBV [1] came out at 16%; with KBV [9] (filed as modulator), 19%. The fold change (FC) is 5 in the data set with KBV [2]; 0.8 in data set [3]; 1.2 in data set [4]; 18 with KBV [6]; 51 in the data set with KBV [7]; 14 in the data set with KBV [8]. In addition, the viability at 72 h, 10 µM in data set [5] was determined as 88%.
Regarding `COc1ccc(CCN(C)CCCC(C#N)(c2ccc(OC)c(OC)c2)C(C)C)cc1OC` (configuration not stated), the Activity turned out to be 31.36% in [10]; 28% with KBV [1]; 11.1% in [11]; 57.42% in data set [12]; 51.35% in data set [13]; 4.69% in [14]. The Activity in [15] was found to be 11.44%; in [16], 18.47%; in [17], 11.57%. Besides, the fold change (FC) in the data set filed under Homo sapiens came out at 5.6; in [4], 1; in the data set with KBV [7], 40; in the data set on KBV [8] it was 16.
Consider `CSCC[C@H](N)C(=O)O[C@H]1CC[C@]2(C)[C@H]3C[C@@H](O)[C@@H]4[C@@H]([C@]5(C)CC[C@@H](C(C)(C)O)O5)CC[C@@]4(C)[C@]3(C)CC[C@H]2C1(C)C`, for which the Activity with KBV [1] came to 31%; in the data set on KBV [9], 56%. In addition, the viability at 72 h, 10 µM in data set [5] was 100%. Moreover, the fold change (FC) in the data set with KBV [6] is 0.4; in the data set with KBV [7], 6.
For the compound `CC(C)(C)OC(=O)NCCCCCC(=O)N[C@H]1CC[C@]2(C)[C@H]3C[C@@H](O)[C@@H]4[C@@H]([C@]5(C)CC[C@H](C(C)(C)O)O5)CC[C@@]4(C)[C@]3(C)CC[C@H]2C1(C)C`, the inhibition in vivo at 10 mg/kg in data set [18] stood at 53.7%.
In the case of `CSCC[C@H](NC(=O)OC(C)(C)C)C(=O)O[C@H]1CC[C@]2(C)[C@H]3C[C@@H](O)[C@@H]4[C@@H]([C@]5(C)CC[C@H](C(C)(C)O)O5)CC[C@@]4(C)[C@]3(C)CC[C@H]2C1(C)C`, the Activity in data set [19] is 14%; in data set [10], 38.79%; with KBV [1], 21%; in [11], 13.75%; in the data set on KBV [20] it was “Dose-dependent effect”; in [12] it was 51.06%. Moreover, the Activity in data set [13] is given as 42.81%; in [21], 12.94%; in data set [22], 51.66%; in data set [14], 3.31%; in data set [23], 19.8%; in data set [15], 13.67%. Further, the Activity came out at 22.66% in data set [16], 26% with KBV [9] (filed as modulator) and 11.1% in data set [17]. In addition, the fold change (FC) in the data set with KBV [2] is 3; in the data set listed under Homo sapiens, 6; in data set [3], 1.4; in [4], 1.6; with KBV [6], 25; in the data set on KBV [7], 59. Besides, in the data set with KBV [8], the fold change (FC) amounted to 8. The viability at 72 h, 10 µM in data set [5] was 120%. Also, the result in the data set with KBV [24] was inactive.
As to `CSCC[C@H](N)C(=O)O[C@H]1CC[C@]2(C)[C@H]3C[C@@H](O)[C@@H]4[C@@H]([C@]5(C)CC[C@H](C(C)(C)O)O5)CC[C@@]4(C)[C@]3(C)CC[C@H]2C1(C)C`, the figures for the Activity in the data set on KBV [1] and in the data set on KBV [9] (filed as modulator) were 23% and 26%, respectively. Also, the viability at 72 h, 10 µM in [5] was 90%. Moreover, the fold change (FC) in the data set on KBV [6] came out at 17; in the data set with KBV [7], 34.

What is called inhibition in vivo is how much of the control response was suppressed.

The record behind these values is ChEMBL document CHEMBL4732258, “Pyxinol bearing amino acid residues: Easily achievable and promising modulators of P-glycoprotein-mediated multidrug resistance” (Eur J Med Chem, 2021).
